The text below walks through data of patent US9562031B1, “Phenethyldihydrobenzodioxolones and methods of use” (Sequoia Sciences, Inc., priority 2015, dated 2017).

“And” between values parts separate entries of the source, which are not always exact repeats. Equal values may be shown once.

For one series, the system named is UO-31 cells. Nature of the series: antiproliferation assay, paclitaxel-resistant UO-31. The following applies: Homo sapiens. It is filed as cell-based. The procedure: (§1) For the antiproliferation assay, NCI-H460 (large cell lung carcinoma) or M14 (amelanotic melanoma) cells were grown in RPMI-1640 with 10% FBS supplemented with L-glutamine and HEPES. Cells were seeded into 96-well plates at 5×10^2 to 5×10^4 cells/well and allowed to adhere overnight; the medium was then removed. A stock solution of test compound in DMSO was diluted in medium to generate a series of working solutions. Aliquots (100 μl) of the working solutions were then added to the appropriate test wells to expose cells to the final concentrations of compound in a total volume of 100 μl. Seven different concentrations were tested, with 2-5 wells per concentration. Camptothecin was used as a positive control; wells containing vehicle without compound were used as negative controls. Plates were kept for 72 h in a 37° C., 5% CO2 incubator. After incubation, viable cells were detected with the CELLTITER 96 AQueous Non-Radioactive Cell Proliferation Assay (Promega), and IC50 values were determined using GraphPad Prism 5 software.
(§2) Compound 4 was tested for antiproliferation activity against several paclitaxel-resistant human cancer cell lines.

A further series deals with TK-10 cells. Briefly: antiproliferation assay, paclitaxel-resistant TK-10. It is filed as cell-based. The following applies: Homo sapiens. The procedure: as §1, §2
Another series deals with MOLT-4 cells. Briefly: antiproliferation assay, MOLT-4. The series is classed as cell-based. Particulars: Homo sapiens. On the procedure:
as §1
(§3) Antiproliferation of several of the active compounds was tested against additional cell lines.

The test system of the next series is EKVX cells. Nature of the series: antiproliferation assay, paclitaxel-resistant EKVX. The series is classed as cell-based. Particulars: Homo sapiens. The procedure:
as §1, §2

In series [1] the test system is NCI-H727 xenograft tumors. Nature of the series: tumor growth inhibition, NCI-H727 murine xenograft model. The following applies: IP 40 mg/kg, days 0,1,2,5,6,7,10,11,12. The series is classed as in vivo, mice. On the procedure:
(§4) Tumor growth inhibition of compound 4 was measured in several murine xenograft models, and the results of individual experiments are listed in Table 14. Tumors were initiated by subcutaneous injection of either tumor cells from cell culture or tumor fragments from continuous in vivo passage. When tumors reached volumes between approximately 100 and 200 mm^3, the mice were divided into vehicle and treatment groups. Compound or vehicle was administered by IP injection in a volume of 5-10 mL/kg.
(§5) Changes in tumor weight (delta weights) for each treated (T) and control (C) group are calculated for each day tumors are measured by subtracting the median tumor weight on the first day of treatment (staging day) from the median tumor weight on the specified observation day. These values are used to calculate a percent T/C as follows: % T/C=(delta T/delta C)×100. The optimal T/C is the minimal value obtained after the first treatment.

A further series relates to NCI/ADR-RES cells. Briefly: antiproliferation assay, NCI/ADR-RES. It is filed as cell-based. The following applies: Homo sapiens. On the procedure: as §1, §3, §2
Series [2] deals with NCI-H460 (lung) xenograft tumors. Briefly: tumor growth inhibition, NCI-H460 murine xenograft model. It is filed as in vivo, mice. The procedure: as §4, §5
For another series, the system named is RPMI-8226 cells. Nature of the series: NCI-60 panel antiproliferation, RPMI-8226. It is filed as cell-based, human. Particulars: Homo sapiens, NCI 60-cell panel. On the procedure: (§6) Bifidenone and Compound 37 were tested for antiproliferation activity against the NCI-60 panel of cancer cell lines. COMPARE analysis was then conducted to compare the activity “fingerprint” of bifidenone to those of known classes of compounds (Zhou, B.-N., Hoch, J. M., Johnson, R. K., Mattern, M. R., Eng, W.-K., Ma, J., Hecht, S. M., Newman, D. J., Kingston, D. G. I., 2000. Use of COMPARE Analysis to Discover New Natural Product Drugs: Isolation of Camptothecin and 9-Methoxycamptothecin from a New Source. Journal of Natural Products 63, 1273-1276.).

In a further series the test system is MDA-MB-231 cells. Nature of the series: NCI-60 panel antiproliferation, MDA-MB-231. The following applies: Homo sapiens, NCI 60-cell panel. The series is classed as cell-based, human. On the procedure:
as §6

Another series relates to UACC-62 cells. Nature of the series: NCI-60 panel antiproliferation, UACC-62. The series is classed as cell-based, human. Particulars: Homo sapiens, NCI 60-cell panel. The procedure:
as §6

The next series relates to HCT-15 cells. Nature of the series: NCI-60 panel antiproliferation, HCT-15. The series is classed as cell-based, human. The following applies: Homo sapiens, NCI 60-cell panel. On the procedure:
as §6

The next series relates to A498 cells. Briefly: NCI-60 panel antiproliferation, A498. The series is classed as cell-based, human. The following applies: Homo sapiens, NCI 60-cell panel. On the procedure: as §6
For another series, the system named is ACHN cells. Nature of the series: NCI-60 panel antiproliferation, ACHN. The following applies: Homo sapiens, NCI 60-cell panel. It is filed as cell-based, human. The procedure: as §6
For another series, the system named is M14 cells. Briefly: NCI-60 panel antiproliferation, M14. The series is classed as cell-based, human. The following applies: Homo sapiens, NCI 60-cell panel. On the procedure: as §6
The next series deals with HCC-2998 cells. Nature of the series: NCI-60 panel antiproliferation, HCC-2998. It is filed as cell-based, human. Particulars: Homo sapiens, NCI 60-cell panel. The procedure: as §6
The test system of a further series is Hs578T cells. Nature of the series: NCI-60 panel antiproliferation, Hs578T. It is filed as cell-based, human. Particulars: Homo sapiens, Hs-578T, NCI 60-cell panel. The procedure:
as §6

The next series has as its system PC-3 cells. Nature of the series: NCI-60 panel antiproliferation, PC-3. It is filed as cell-based, human. The following applies: Homo sapiens, NCI 60-cell panel. The procedure: as §6
A further series has as its system OVCAR-3 cells. Briefly: NCI-60 panel antiproliferation, OVCAR-3. It is filed as cell-based, human. The following applies: Homo sapiens, NCI 60-cell panel. On the procedure: as §6
The next series relates to OVCAR-8 cells. Briefly: NCI-60 panel antiproliferation, OVCAR-8. The series is classed as cell-based, human. Particulars: Homo sapiens, NCI 60-cell panel. The procedure: as §6
In another series the test system is Caki-1 cells. Nature of the series: NCI-60 panel antiproliferation, Caki-1. It is filed as cell-based, human. Particulars: Homo sapiens, NCI 60-cell panel. The procedure: as §6
The test system of the next series is NCI-H322M cells. Briefly: NCI-60 panel antiproliferation, NCI-H322M. It is filed as cell-based, human. Particulars: Homo sapiens, NCI 60-cell panel. The procedure:
as §6

The subject of a further series is SK-OV-3 cells. Nature of the series: NCI-60 panel antiproliferation, SK-OV-3. Particulars: Homo sapiens, NCI 60-cell panel. The series is classed as cell-based, human. The procedure:
as §6

Another series concerns SK-Mel-2 cells. Briefly: NCI-60 panel antiproliferation, SK-MEL-2. The series is classed as cell-based, human. The following applies: Homo sapiens, NCI 60-cell panel. On the procedure:
as §6

The subject of the next series is OVCAR-4 cells. Briefly: NCI-60 panel antiproliferation, OVCAR-4. Particulars: Homo sapiens, NCI 60-cell panel. It is filed as cell-based, human. The procedure:
as §6

For another series, the system named is U251 cells. Nature of the series: NCI-60 panel antiproliferation, U251. It is filed as cell-based, human. The following applies: Homo sapiens, U-251, NCI 60-cell panel. On the procedure: as §6
The next series deals with MDA-MB-435 cells. Nature of the series: NCI-60 panel antiproliferation, MDA-MB-435. The series is classed as cell-based, human. The following applies: Homo sapiens, NCI 60-cell panel. The procedure:
as §6

A further series concerns MALME-3M cells. Nature of the series: NCI-60 panel antiproliferation, MALME-3M. The series is classed as cell-based, human. The following applies: Homo sapiens, NCI 60-cell panel. On the procedure:
as §6

A further series relates to SF-539 cells. Nature of the series: NCI-60 panel antiproliferation, SF-539. The series is classed as cell-based, human. Particulars: Homo sapiens, NCI 60-cell panel. On the procedure: as §6
In a further series the test system is HOP-62 cells. Briefly: NCI-60 panel antiproliferation, HOP-62. The series is classed as cell-based, human. The following applies: Homo sapiens, NCI 60-cell panel. The procedure: as §6
For the next series, the system named is SK-MEL-28 cells. Nature of the series: NCI-60 panel antiproliferation, SK-MEL-28. The series is classed as cell-based, human. Particulars: Homo sapiens, NCI 60-cell panel. On the procedure: as §6
Where [3] appears, read: IP 30 mg/kg, days 0,1,2,3,5,6,7,8,10,11,12,13.
The mark [4] stands for this setting: IP 60 mg/kg, days 0,1,2,5,6,7,10,11,12.

Regarding `C=CC[C@H]1C[C@]2([C@H](C)Cc3cc(O)c(OC)cc3F)OCOC2=CC1=O` (relative stereo) [Compound 4, 6-allyl-7a-(1-(2-fluoro-5-hydroxy-4-methoxyphenyl)propan-2-yl)-7,7a-dihydrobenzo[d][1,3]dioxol-5(6H)-one], the IC50 (as a rule, the point on the concentration scale where inhibition reaches its midpoint) in the series with UO-31 cells turned out to be 7 nM; with TK-10 cells, 7 nM; in the series on MOLT-4 cells, 28 nM; with EKVX cells, 7 nM; in the series on NCI/ADR-RES cells, 9.1 nM; in the series on NCI/ADR-RES cells (paclitaxel-resistant NCI/ADR-RES) it was 9 nM. Further, the “Maximum Mean Body Weight Loss” value in series [1] is recorded as 0%; in [2] (setting [3]), 7%; in series [2] (IP 40 mg/kg, days 0,1,2,5,6,7,10,11,12 (two experiments)), 7%; in [2] (setting [4]), 9%. The “Optimal T/C” value was 30% in [1]; 42% in [2] (setting [3]); 29% and 35% in [2] (IP 40 mg/kg, days 0,1,2,5,6,7,10,11,12 (two experiments), 40 mg/kg); 40% in series [2] (setting [4]).

With `C=CC[C@H]1C[C@]2([C@@H](C)Cc3ccc(OC)c(F)c3)OCOC2=CC1=O` [Compound 37, (6S,7aR)-6-allyl-7a-((S)-1-(3-fluoro-4-methoxyphenyl)propan-2-yl)-7,7a-dihydrobenzo[d][1,3]dioxol-5(6H)-one], the IC50 came out at 74 nM in the series on RPMI-8226 cells; 837 nM in the series with MDA-MB-231 cells; 35 nM in the series with UACC-62 cells; 56 nM with HCT-15 cells; 58 nM in the series with A498 cells; 32 nM with ACHN cells. Besides, the IC50 with M14 cells was 59 nM; in the series with HCC-2998 cells, 129 nM; in the series on Hs578T cells, 72 nM; in the series with PC-3 cells, 70 nM; in the series with OVCAR-3 cells, 40 nM; with OVCAR-8 cells it was 110 nM. Besides, the IC50 in the series with Caki-1 cells came to 97 nM; in the series on NCI-H322M cells, 125 nM; in the series on SK-OV-3 cells, 39 nM; in the series on SK-Mel-2 cells, 51 nM; with OVCAR-4 cells, 117 nM; in the series with U251 cells it was 123 nM. Besides, the IC50 was found to be 28 nM in the series with MDA-MB-435 cells; 39 nM in the series on MALME-3M cells; 74 nM with SF-539 cells; 102 nM in the series with HOP-62 cells; 37 nM with SK-MEL-28 cells.
